Results: ChEMBL document CHEMBL1201862, “PubChem BioAssay data set” (2004)
Active and inactive are the calls of the source.

Tests used:
[1] = T. cruzi infection blockers in NIH3T3 cells – beta-gal luminescence, NIH3T3 host cells, confirmation (AID 2630); format: functional, cell-based; settings: Mus musculus
[2] = Luminescence Cell-Based/Microorganism Confirmation at Dose of Inhibitors of Trypanosoma cruzi Infection. [Related pubchem assays: 1885, 1968 ]; format: functional
[3] = Luminescence Cell-Based Secondary HTS screen to identify cytotoxic compounds of NIH3T3 cells. [Related pubchem assays: 1885, 1968 ]; format: functional
[4] = target: G-protein coupled receptor 55 (Homo sapiens, UniProt Q9Y2T6); test: blockers of GPR55 signalling, imaged – imaging, image-based, counter-screen for GPR35 antagonist project, SAR follow-up (AID 2397); format: functional
Cytochrome P450 1A2 = target: T1, Cytochrome P450 1A2 (Homo sapiens, UniProt P05177);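 further: PubChem cytochrome P450 panel assay, CYP1A2 panel member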
T1 sequence (P05177 whole entry): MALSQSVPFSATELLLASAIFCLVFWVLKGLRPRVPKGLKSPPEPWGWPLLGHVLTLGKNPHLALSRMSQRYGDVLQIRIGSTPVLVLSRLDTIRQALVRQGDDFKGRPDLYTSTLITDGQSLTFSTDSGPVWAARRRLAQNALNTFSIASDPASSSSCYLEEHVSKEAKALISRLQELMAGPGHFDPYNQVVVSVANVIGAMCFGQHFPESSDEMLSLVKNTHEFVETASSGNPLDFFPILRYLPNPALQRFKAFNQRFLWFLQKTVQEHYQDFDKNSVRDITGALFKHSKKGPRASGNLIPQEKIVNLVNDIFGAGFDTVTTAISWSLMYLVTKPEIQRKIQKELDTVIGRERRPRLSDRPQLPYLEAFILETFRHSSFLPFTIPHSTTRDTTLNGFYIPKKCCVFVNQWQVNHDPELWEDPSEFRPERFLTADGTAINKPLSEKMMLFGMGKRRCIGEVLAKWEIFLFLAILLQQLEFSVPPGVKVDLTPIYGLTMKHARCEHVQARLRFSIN

Cytochrome P450 2C9 = Cytochrome P450 2C9 (Homo sapiens, UniProt P11712)
Cytochrome P450 2D6 = Cytochrome P450 2D6 (Homo sapiens, UniProt P10635);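 further: CYP2D6 member of a cytochrome P450 panel assay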
Cytochrome P450 3A4 = Cytochrome P450 3A4 (Homo sapiens, UniProt P08684);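 further: CYP3A4 tested as one member of a cytochrome P450 panel screen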
Cytochrome P450 2C19 = Cytochrome P450 2C19 (Homo sapiens, UniProt P33261); test: Cytochrome panel assay with activity outcomes. Panel member name: p450-cyp2c19 Compounds with AC50 equal or less than 10 uM are considered active; format: functional
[5] = target: Intestinal-type alkaline phosphatase (Homo sapiens, UniProt P09923); test: activation of human intestinal alkaline phosphatase – biochemical, dose response (AID 488873); format: functional
[6] = target: Eukaryotic translation initiation factor 4H (Homo sapiens, UniProt Q15056); test: eIF4H binding inhibition – biochemical, uHTS, fluorescence polarization, translation initiation inhibitor project, primary screen (AID 2012)
SUMO-activating enzyme [7] = target: T2, SUMO-activating enzyme (Homo sapiens, UniProt Q9UBT2); test: blockers of UBC9-mediated SUMO conjugation – biochemical, AlphaScreen, SUMOylation inhibitor project, confirmation (AID 2018); format: functional
[8] = target: T3, Alkaline phosphatase, tissue-nonspecific isozyme (Homo sapiens, UniProt P05186); test: activation of tissue-nonspecific alkaline phosphatase – biochemical, TNAP isozyme, mouse IAP uHTS hits, selectivity assay for mouse IAP activator project, dose response (AID 488880); format: functional
T3 sequence (P05186 whole entry): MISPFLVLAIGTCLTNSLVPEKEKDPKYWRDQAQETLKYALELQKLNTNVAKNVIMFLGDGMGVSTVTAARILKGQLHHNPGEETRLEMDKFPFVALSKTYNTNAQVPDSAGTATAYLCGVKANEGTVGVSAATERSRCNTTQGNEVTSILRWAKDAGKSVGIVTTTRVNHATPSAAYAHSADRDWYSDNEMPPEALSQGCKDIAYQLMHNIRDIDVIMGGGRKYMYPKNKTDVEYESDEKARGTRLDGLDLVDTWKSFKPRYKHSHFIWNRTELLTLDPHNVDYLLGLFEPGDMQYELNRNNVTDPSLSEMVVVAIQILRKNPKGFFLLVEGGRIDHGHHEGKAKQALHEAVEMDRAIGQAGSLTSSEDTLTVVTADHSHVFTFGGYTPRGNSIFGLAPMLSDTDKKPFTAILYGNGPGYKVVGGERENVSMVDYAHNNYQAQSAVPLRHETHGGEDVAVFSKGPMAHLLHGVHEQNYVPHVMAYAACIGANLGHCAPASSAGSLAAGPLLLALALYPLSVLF

[9] = target: Intestinal-type alkaline phosphatase (Mus musculus, UniProt P24822); test: mouse intestinal alkaline phosphatase activators, dose response, biochemical, luminescence, uHTS hits (AID 488783); format: functional
SUMO-activating enzyme [10] = target: T2, SUMO-activating enzyme; test: blockers of SAE1/SAE2–UBC9 SUMO transfer – biochemical, HTRF, uHTS, primary screen (AID 2006); format: protein-complex assay
[11] = target: Polyadenylate-binding protein 1 (Homo sapiens, UniProt P11940); test: blockers of PABP interaction with poly(A) – biochemical, fluorescence polarization, […] (AID 2014)
Polyadenylate-binding protein 1, sequence (P11940 whole entry): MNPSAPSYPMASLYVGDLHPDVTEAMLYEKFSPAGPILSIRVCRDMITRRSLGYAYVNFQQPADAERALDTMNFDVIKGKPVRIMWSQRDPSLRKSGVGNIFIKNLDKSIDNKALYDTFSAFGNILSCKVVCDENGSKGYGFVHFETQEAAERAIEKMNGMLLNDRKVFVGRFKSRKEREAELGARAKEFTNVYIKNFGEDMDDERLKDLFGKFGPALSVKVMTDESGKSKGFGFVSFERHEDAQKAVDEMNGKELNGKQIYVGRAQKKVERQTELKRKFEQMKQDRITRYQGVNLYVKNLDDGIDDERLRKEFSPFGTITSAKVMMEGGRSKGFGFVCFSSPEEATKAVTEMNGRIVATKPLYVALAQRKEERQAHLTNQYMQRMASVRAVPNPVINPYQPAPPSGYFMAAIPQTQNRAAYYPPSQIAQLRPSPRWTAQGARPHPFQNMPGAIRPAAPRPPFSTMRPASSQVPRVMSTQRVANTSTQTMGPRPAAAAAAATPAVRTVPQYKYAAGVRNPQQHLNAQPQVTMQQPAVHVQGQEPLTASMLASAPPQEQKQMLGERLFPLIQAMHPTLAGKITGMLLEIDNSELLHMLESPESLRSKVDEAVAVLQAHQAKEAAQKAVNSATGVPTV

T2 sequence (Q9UBE0 whole entry): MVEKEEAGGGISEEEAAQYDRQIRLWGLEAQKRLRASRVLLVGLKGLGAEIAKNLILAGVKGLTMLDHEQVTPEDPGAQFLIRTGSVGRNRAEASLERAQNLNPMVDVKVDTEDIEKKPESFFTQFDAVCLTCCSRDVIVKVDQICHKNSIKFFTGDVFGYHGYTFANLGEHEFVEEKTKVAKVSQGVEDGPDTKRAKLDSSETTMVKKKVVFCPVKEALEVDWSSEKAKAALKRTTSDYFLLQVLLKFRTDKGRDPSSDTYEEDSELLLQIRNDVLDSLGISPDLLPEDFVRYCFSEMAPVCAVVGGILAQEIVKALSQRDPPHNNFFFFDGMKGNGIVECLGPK
T2 sequence (Q9UBT2 whole entry): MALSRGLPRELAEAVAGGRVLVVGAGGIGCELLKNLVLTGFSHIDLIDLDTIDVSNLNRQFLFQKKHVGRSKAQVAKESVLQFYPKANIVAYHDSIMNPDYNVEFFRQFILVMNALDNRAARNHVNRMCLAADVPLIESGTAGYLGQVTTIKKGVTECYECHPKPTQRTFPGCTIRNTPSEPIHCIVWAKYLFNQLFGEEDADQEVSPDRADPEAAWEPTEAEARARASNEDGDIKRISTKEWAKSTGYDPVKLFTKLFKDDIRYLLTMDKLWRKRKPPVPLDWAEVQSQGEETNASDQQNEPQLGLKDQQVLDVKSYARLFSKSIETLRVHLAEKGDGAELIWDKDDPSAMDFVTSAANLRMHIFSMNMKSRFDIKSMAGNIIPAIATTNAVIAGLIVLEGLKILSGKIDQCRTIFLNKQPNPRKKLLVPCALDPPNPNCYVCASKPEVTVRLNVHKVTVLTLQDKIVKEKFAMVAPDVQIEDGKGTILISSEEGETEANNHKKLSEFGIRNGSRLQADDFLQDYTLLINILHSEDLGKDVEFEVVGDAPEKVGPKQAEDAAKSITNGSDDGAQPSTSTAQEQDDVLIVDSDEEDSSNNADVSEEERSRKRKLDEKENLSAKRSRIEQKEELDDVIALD
G-protein coupled receptor 55, sequence (Q9Y2T6 whole entry): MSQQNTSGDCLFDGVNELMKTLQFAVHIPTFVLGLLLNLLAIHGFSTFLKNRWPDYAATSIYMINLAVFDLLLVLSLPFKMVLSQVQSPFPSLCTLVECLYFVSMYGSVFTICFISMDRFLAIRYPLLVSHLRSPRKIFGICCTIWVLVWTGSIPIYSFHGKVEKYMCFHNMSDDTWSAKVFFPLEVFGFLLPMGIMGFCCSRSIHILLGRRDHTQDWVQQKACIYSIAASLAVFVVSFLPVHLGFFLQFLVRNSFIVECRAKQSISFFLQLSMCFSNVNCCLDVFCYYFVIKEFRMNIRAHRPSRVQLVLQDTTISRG
Cytochrome P450 3A4, sequence (P08684 whole entry): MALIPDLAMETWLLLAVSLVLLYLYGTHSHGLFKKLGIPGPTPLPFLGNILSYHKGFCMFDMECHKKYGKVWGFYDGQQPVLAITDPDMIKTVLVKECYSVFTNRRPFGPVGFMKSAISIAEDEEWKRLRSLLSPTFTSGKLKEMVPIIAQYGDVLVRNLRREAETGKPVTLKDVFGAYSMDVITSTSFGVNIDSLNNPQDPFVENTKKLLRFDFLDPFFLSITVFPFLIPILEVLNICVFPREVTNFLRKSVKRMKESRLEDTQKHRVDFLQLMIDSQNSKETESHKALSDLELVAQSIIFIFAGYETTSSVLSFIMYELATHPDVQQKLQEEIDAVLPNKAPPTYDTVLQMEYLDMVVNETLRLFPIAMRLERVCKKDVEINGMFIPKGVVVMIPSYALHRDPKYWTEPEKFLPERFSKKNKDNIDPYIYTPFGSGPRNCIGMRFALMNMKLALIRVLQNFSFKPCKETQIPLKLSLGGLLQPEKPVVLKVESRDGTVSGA
Cytochrome P450 2D6, sequence (P10635 whole entry): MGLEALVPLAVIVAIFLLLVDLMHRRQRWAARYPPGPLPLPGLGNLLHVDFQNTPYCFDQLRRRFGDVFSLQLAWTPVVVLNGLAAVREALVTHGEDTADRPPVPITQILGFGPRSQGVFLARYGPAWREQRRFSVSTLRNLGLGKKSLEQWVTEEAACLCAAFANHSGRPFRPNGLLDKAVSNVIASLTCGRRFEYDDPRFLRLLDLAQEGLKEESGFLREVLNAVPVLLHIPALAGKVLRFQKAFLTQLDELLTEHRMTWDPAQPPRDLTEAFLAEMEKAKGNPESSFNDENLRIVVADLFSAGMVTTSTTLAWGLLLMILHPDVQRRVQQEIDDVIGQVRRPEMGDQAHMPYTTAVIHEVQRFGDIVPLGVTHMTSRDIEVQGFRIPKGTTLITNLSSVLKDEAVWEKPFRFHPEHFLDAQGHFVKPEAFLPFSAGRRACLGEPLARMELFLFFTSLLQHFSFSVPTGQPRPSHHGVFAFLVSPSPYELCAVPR
Cytochrome P450 2C19, sequence (P33261 whole entry): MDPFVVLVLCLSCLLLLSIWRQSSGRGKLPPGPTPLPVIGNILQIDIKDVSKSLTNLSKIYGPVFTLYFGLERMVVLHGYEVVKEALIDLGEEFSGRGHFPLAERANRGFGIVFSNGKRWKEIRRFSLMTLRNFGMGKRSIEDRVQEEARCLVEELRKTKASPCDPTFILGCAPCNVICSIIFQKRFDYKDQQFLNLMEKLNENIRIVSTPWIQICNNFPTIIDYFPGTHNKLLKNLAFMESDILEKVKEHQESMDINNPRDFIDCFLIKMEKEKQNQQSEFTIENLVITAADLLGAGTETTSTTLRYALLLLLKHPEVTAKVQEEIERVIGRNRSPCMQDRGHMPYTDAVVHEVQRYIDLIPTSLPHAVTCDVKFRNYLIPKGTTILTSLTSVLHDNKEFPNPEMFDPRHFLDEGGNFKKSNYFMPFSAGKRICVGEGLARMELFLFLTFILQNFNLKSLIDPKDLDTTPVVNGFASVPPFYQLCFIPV
Intestinal-type alkaline phosphatase (Mus musculus, UniProt P24822), sequence (P24822 whole entry): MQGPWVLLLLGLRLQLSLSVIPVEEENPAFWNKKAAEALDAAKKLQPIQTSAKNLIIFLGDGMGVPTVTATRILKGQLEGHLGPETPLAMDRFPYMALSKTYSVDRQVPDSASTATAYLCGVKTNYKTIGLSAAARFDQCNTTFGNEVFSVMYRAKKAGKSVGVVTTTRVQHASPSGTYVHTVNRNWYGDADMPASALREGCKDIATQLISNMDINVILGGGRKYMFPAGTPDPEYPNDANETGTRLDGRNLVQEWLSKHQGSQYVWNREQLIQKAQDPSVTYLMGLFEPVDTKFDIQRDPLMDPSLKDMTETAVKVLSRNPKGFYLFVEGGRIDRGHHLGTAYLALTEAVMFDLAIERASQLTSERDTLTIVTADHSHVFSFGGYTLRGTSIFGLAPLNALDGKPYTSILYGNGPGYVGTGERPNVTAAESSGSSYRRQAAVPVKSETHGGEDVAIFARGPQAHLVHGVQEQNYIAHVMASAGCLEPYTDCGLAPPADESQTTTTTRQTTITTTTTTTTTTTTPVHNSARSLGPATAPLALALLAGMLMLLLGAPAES
Intestinal-type alkaline phosphatase (Homo sapiens, UniProt P09923), sequence (P09923 whole entry): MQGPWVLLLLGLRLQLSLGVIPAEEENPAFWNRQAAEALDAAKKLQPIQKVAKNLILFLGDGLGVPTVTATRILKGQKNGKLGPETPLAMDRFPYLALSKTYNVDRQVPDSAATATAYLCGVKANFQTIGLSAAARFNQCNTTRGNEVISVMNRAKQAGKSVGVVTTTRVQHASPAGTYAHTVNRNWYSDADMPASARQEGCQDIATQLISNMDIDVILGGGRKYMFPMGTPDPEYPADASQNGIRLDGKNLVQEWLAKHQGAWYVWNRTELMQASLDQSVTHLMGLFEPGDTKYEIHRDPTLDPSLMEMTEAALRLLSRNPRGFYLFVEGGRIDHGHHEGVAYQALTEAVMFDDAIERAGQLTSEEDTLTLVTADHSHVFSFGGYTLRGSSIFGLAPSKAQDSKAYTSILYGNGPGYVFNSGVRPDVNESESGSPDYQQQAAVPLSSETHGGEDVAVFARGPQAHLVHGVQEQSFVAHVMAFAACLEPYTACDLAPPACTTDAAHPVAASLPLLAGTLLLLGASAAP

In the case of `CC(C)c1cccc(OCCCCN(C)C)c1`, the EC50 [1] is reported as 2.18 µM (active), the EC50 [2] is reported as 2.18 µM (active) and the EC50 [3] is reported as > 195 µM (not active).

In the case of `Cc1c(C(=O)Nc2ccc3c(c2)OCCO3)sc2ncnc(O)c12`, the IC50 [4] is reported as > 32 µM (inactive).

With `Cc1ncc(CO)c(/C=N/CCCCCC/N=C/c2c(CO)cnc(C)c2[O-])c1[O-].[Mg+2]` the AC50 (Cytochrome P450 1A2) was “inactive”, the AC50 (Cytochrome P450 2C9) was “inactive” and the AC50 (Cytochrome P450 2D6) was “inactive”. For the same compound, the AC50 (Cytochrome P450 3A4) was “inactive” and the AC50 (Cytochrome P450 2C19) was “inactive”.

With `Cc1ccc(C(=O)Nc2nnc(CC(=O)N/N=C/c3ccc(O)c(O)c3)s2)cc1` the EC50 [5] was 66 µM (active), the IC50 [6] was 4.81 µM (active) and the IC50 (SUMO-activating enzyme [7]) was 1.71 µM (active). The EC50 [8] was 47.8 µM (active), the EC50 [9] was 37.2 µM (active) and the IC50 (SUMO-activating enzyme [10]) was 37.1 µM (active). For the same compound, the IC50 [11] was 46 µM (active).
